Measured values reported in PubChem BioAssay (NCI).
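These data come from cells grown in 96-well plates and exposed to compound for 48 hours at five concentrations. GI50: concentration for 50% inhibition of growth. TGI marks complete inhibition of growth.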

Key:
Experiment in all cases: NCI anticancer screen, dose series, 48 h
OVCAR-4 ovarian = test system: OVCAR-4 ovarian
MALME-3M melanoma = test system: MALME-3M melanoma
UACC-62 melanoma = test system: UACC-62 melanoma
SF-295 CNS = test system: SF-295 CNS
A498 renal = test system: A498 renal
PC-3 prostate = test system: PC-3 prostate
A549 NSCLC = test system: A549 NSCLC
SK-MEL-5 melanoma = test system: SK-MEL-5 melanoma
RXF 393 renal = test system: RXF 393 renal
HOP-92 NSCLC = test system: HOP-92 NSCLC

SMILES	GI50 (OVCAR-4 ovarian) [µM]	TGI (OVCAR-4 ovarian) [µM]	GI50 (MALME-3M melanoma) [µM]	TGI (MALME-3M melanoma) [µM]	GI50 (UACC-62 melanoma) [µM]	TGI (UACC-62 melanoma) [µM]	GI50 (SF-295 CNS) [µM]	TGI (SF-295 CNS) [µM]	GI50 (A498 renal) [µM]	TGI (A498 renal) [µM]	GI50 (PC-3 prostate) [µM]	TGI (PC-3 prostate) [µM]	GI50 (A549 NSCLC) [µM]	TGI (A549 NSCLC) [µM]	GI50 (SK-MEL-5 melanoma) [µM]	TGI (SK-MEL-5 melanoma) [µM]	GI50 (RXF 393 renal) [µM]	TGI (RXF 393 renal) [µM]	TGI (HOP-92 NSCLC) [µM]	GI50 (HOP-92 NSCLC) [µM]
C/C(=N/O)c1cccc(Nc2cc(-n3nnc4ccccc43)nc3ccccc23)c1	18.8	> 100	16.8	48	12.7	34	5.62	19.8	25	55.8	8.87	33.5	13.3	> 72.9	3.78	13.7	14.7	43		
O=C(/C=C/c1ccccc1)Oc1cccc2cccnc12		27.6		11.4		27.1		> 100						76.9		24		> 85.4	81.6	
C/C=C/C(C#N)O[Si](C)(C)C (stereo unspecified)		> 100		> 100		> 100		> 100		> 100				> 100		> 100		> 100	> 100	
Cc1nc(C(N)=O)c(N)n1CCN1CCN(C(=O)CCCCCCCCCCNC2N=CNc3nc[nH]c32)CC1 (stereo unspecified)				> 100		> 100		> 100		> 100				> 100					> 100	
O=C1OCC2=C1C(c1cccc(F)c1)c1cc3c(cc1N2CCO)OCO3 (stereo unspecified)	46.8	> 50			2.25	> 50	1.2	> 50	1.11	4.87	1.46	> 50	8.74	> 50	1.26	> 50	1.51	4.96	> 50	3.1
COC1=NCc2ccccc2-c2ccccc21		> 100		> 100		> 100		> 100						> 100		> 100		> 100		
N#C[Se]Cc1cc(-c2ccccc2)n(-c2ccc(S(N)(=O)=O)cc2)n1	2.61	8.16	2.2	6.6	1.66	3.75	0.444	2.48			0.711	3.56	0.605	2.12			0.542	1.92	4.61	2.1
N#CC(N)=Nc1ccccc1		> 100		> 100		> 100		> 100		> 100				> 100		> 100			> 100	
CN1N=CSC12C(=O)N(c1ccccc1)C(=O)N2c1ccccc1 (stereo unspecified)		> 100		> 100		> 100		> 100		> 100				> 100		> 100		> 100		
O=S(=O)(/N=c1\scc(-c2ccccc2)n1-c1ccccc1)c1ccc(N2N=C3c4ccccc4CC3C2c2ccc(Cl)cc2)cc1 (stereo unspecified)	63.8	> 100			32.7	> 100	40.7	> 100	79.8	> 100	19.1	> 100	31.4	> 100	25.2	75	42	> 100	> 100	38.6
Cc1c(/C=N/NC(=O)c2ccccc2O)c(=O)n(-c2ccccc2)n1C		> 100		> 100		> 100		> 100						> 100				> 100	> 100	
COC(=O)/C(=N\NC(C)(C)C)C(C(=O)OC)C(=O)C(=O)Nc1cc(Cl)ccc1Cl (stereo unspecified)		> 100		> 100		> 100		> 100		> 100				> 100		> 100		> 100	> 100	
CN(C(=O)/C=C/c1ccccc1)C1C2CN3CCC(O2)C13 (stereo unspecified)		> 100		> 100		> 100		> 100		> 100				> 100		> 100		> 100		
Cn1c(=O)c(N=Nc2c(=O)n(C)c(=O)n3c2[nH]c2ccccc23)c2[nH]c3ccccc3n2c1=O		> 100		> 100		> 100		> 100		> 100				> 100		> 100		> 100	> 100	
COC(=O)C1=CO[C@@H](OC2CC(CO)C(O)C(O)C2O)[C@@H]2[C@@H](C)[C@@H](OC(=O)/C=C/c3ccccc3)[C@@H](O)[C@H]12 (stereo partly specified) (tested in a mixture with another compound)		> 100		> 100		> 100		> 100		> 100				> 100		> 100			> 100	
Nc1ncnc2c1ncn2C1OC(CSCC(F)(F)F)C(O)C1O (stereo unspecified)		> 100		> 100		> 100		> 100						> 100		> 100		> 100	> 100	
O=C(O)CCNS(=O)(=O)c1ccc(NC(=O)c2ccccc2)cc1		> 100		> 100		> 100		> 100		> 100				> 100		> 100		> 100	> 100	
O=C(NCCCOC(=O)CCCCCCCCC(=O)OCCCNC(=O)NC(=O)c1c[nH]c(=O)[nH]c1=O)NC(=O)c1c[nH]c(=O)[nH]c1=O		> 100		> 100		> 100		> 100		> 100				> 100		> 100			> 100	
O=C(COc1ccccc1Cl)N1N=C(c2ccc(Cl)cc2)CC1(O)c1ccccc1 (stereo unspecified)		> 100		> 100		> 100		> 100						> 100					> 100	
C[N+](C)(C)CCC(=O)CC[N+](C)(C)C		34.8		47.6		41.4		34.5		> 100				> 100		> 100		36		
C=C(c1ccccc1)C1(O)CCCCC1N (stereo unspecified)		> 100		> 100		> 100		> 100		> 100				> 100		> 100		> 100	> 100	

SMILES	GI50 (OVCAR-4 ovarian) [µM]	TGI (OVCAR-4 ovarian) [µM]	GI50 (MALME-3M melanoma) [µM]	TGI (MALME-3M melanoma) [µM]	GI50 (UACC-62 melanoma) [µM]	TGI (UACC-62 melanoma) [µM]	GI50 (SF-295 CNS) [µM]	TGI (SF-295 CNS) [µM]	GI50 (A498 renal) [µM]	TGI (A498 renal) [µM]	GI50 (PC-3 prostate) [µM]	TGI (PC-3 prostate) [µM]	GI50 (A549 NSCLC) [µM]	TGI (A549 NSCLC) [µM]	GI50 (SK-MEL-5 melanoma) [µM]	TGI (SK-MEL-5 melanoma) [µM]	GI50 (RXF 393 renal) [µM]	TGI (RXF 393 renal) [µM]	TGI (HOP-92 NSCLC) [µM]	GI50 (HOP-92 NSCLC) [µM]
CCSCCCSCCSCC		> 100				> 100		> 100				> 100		> 100		> 100				
COc1ccc2nccc(C3=CCC4CCN(C(=O)c5ccccc5)C3C4)c2c1 (stereo unspecified)		> 100		> 100		> 100		> 100		> 100				> 100		> 100		> 100	> 100	
Cn1ccnc1CCc1c(Cl)cccc1Cl		> 100		> 100		> 100		> 100		> 100				> 100		> 100		> 100	> 100	
COc1cccc(-c2nc3cc(NC(=O)c4ccc(Cl)c(C#N)c4)ccc3o2)c1	1.8	3.43			3.29	> 100	11.7	> 100			2.96	> 100	1.88	3.8	1.79	4.2	3.12	9.45	8.56	3.01
O=C(N/N=C/c1ccccc1O)N/N=C/c1ccccc1O		> 100		> 100		> 100		> 100		> 100				> 100				> 100	> 100	
COc1cc(Cl)cc(=O)c(O)c1OC		> 100		> 100		70.7		> 100		> 100								> 100		
COC(=O)c1sc(C(=O)OC)c2c1CS(=O)C2		> 100		> 100		> 100		> 100		> 100				> 100		> 100		> 100	> 100	
O=[N+]([O-])c1ccccc1N=Nc1c(O)[nH]c2cccc(C(F)(F)F)c12		52				> 100		> 100		> 100		> 100		> 100		> 100		> 100		
Cc1c(OC(C)C(=O)O)ccc2c(-c3ccccc3)cc(=O)oc12 (stereo unspecified)		> 100		> 100		> 100		> 100		> 100				> 100		> 100		> 100	> 100	
CNC(=S)Nc1ccc(OC)c2ccccc12		> 10		> 10		> 10		5.77				> 10		> 10		> 10			> 10	
CCc1c(C#N)c(=O)[nH]c(=O)n1CCN1CCN(C(=O)NCCCCCCNC(=O)N2CCN(CCn3c(CC)c(C#N)c(=O)[nH]c3=O)CC2)CC1		> 100				> 100		> 100		> 100				> 100		> 100				
Cc1cc2c(C)nn(Cc3ccccc3)c2c(C(=O)O)c1C				> 100		> 100		> 100						> 100				> 100	> 100	
CCOC(=O)NC(=O)c1cn(CCN2CCN(C(=O)NCCCCCCNC(=O)N3CCN(CCn4cc(C(=O)NC(=O)OCC)c(=O)[nH]c4=O)CC3)CC2)c(=O)[nH]c1=O		> 100		> 100		> 100		> 100		> 100				> 100		> 100		> 100	> 100	
O=C1Nc2ccccc2C1(O)C/C(=N/O)c1ccc2ccccc2c1 (stereo unspecified)		> 100		> 100				> 100		> 100				> 100				> 100		
CC1=C2C(=C[C@@](C)(CO)[C@@H]2OC(=O)N(C)CCN(C)C(=O)OC(C)(C)C)C(=O)[C@](C)(O)C12CC2	4.68	22.6			8.33	17.8	1.8	33.1	8.8	20.1	7.19	28.6	5.88	> 50	8.84	16.4	1.22	4.06	25.1	8.08
CC[O-].CC[O-].O=C([CH-]C(=O)c1ccccc1)CCCCCCCCC(=O)[CH-]C(=O)c1ccccc1.[Ti+4]	78.8	> 100	73.6	> 100	> 100	> 100	1.52	> 100	> 100	> 100			> 100	> 100	> 100	> 100	45	> 100	> 100	67.5
Clc1ccc(-c2cn3ccnc3c(-c3ccc(Cl)cc3)n2)cc1					36.2	> 100	11.1	91.7	30.7	77.2	19.6	> 100	8.31	> 100	16.6	43.5	3.57	> 100	> 100	15.1
CCc1cccc(C)c1NS(=O)(=O)c1ccccc1		> 100		> 100		> 100		> 100		> 100				> 100		> 100		> 100		
CCOC(=O)Cc1nc2ccc3c(c2[nH]c1=O)C(=O)c1ccccc1C3=O		> 100		> 100		> 100				> 100				> 100		> 100		63.1	> 100	
c1cc[c]([Sn][c]2ccccc2)cc1	24	55.2	23.2	47.7	21	47	27.8	69.7					21.5	51.5	16.8	31.9	12.4	36.5	47.5	19
O=C1C=CC(=O)c2c1ccc1c3ccccc3n(Cc3ccc([N+](=O)[O-])cc3)c21		> 100				> 100		> 100				> 100		> 100		> 100		> 100		
